Key:
[1] = system: wheat variety Canon immature embryos / embryogenic callus; assay: Agrobacterium-mediated transformation with dsdA constructs and selection of transgenic plants; format: cell-based, Triticum aestivum
Description: (§1) Explants were washed with PAW-Inf. medium and immersed in the above-described bacterial suspension for 2 h at 26° C. At the end of infection the explants were placed with scutellum side up on PAW-1 medium. The residual bacterial suspension is removed by pipeting out and air-drying of the infected embryos by opening plates for 15 min on the sterile banch. Plates were sealed with Parafilm and placed in thermostat at 26° C. in the dark for 5-6 days co-cultivation.
(§2) After co-cultivation period the explants were washed with sterile water and 500 mg/L Cefotaxime and filter paper dried before being transferred to PAW-2 callus induction-recovery medium containing 160 mg/l Timentin for 14 days (7 days dark/7 days semi light; 13.2 μmol m^−2s^−1). Explants with embryogenic callus were subculture to PAW-2 callus-proliferation medium containing 160 mg/l Timentin and corresponding selection 5 mM D-serine or 5 mM D-alanine or 3 mg/l bialaphos. In some experiments the selection on D-amino acids was starting on PAW-2 callus induction medium 0, 7, 14 and 21 days after co cultivation. Embryogenic callus was subculture twice on fresh selective medium for callus maintaining and regeneration on PAW-4 medium with corresponding selection. Cultures were maintained at 23° C. on light 60.2 μmol m^−2s^−1. Regenerated shoots were subculture to PAW-5 hormone free medium with corresponding selection (5 mM D-serine or 5 mM D-alanine or 3 mg/l bialaphos) for further growth and rooting. All media used in the transformation experiments were filter sterilized and are listed in above. After analyses transgenic plants were transferred to soil and placed for further growth in greenhouse. 1.4 Molecular and expression studies of the transgenic plants
Freshly isolated immature embryos from Canon were inoculated with Agrobacterium. In all experiments Agrobacterium tumefacience LBA4404 (pSB1/pRLM167) (SEQ ID NO: 11) was used. The pRLM167 is a super binary vector containing p-ZmUBI+I::c-dsdA::t-OCS and p-ZmUBI+I::c-PAT::t-OCS selectable marker genes in expression cassettes (FIG. 1). Following co cultivation the explants were given a chance to recover for 14 days on callus induction selection free medium containing 160 mg/l Timentin to inhibit bacterial growth. Under these conditions 59% to 76% of the embryogenic callus developed over the all surface of immature embryos. Embryogenic callus was split in two and transferred to two the corresponding selection medium containing 5-mM D-serine or 3 mg/l bialaphos. During subsequent growth of callus, regeneration of plantlets, shoots elongation and roots formation the respective selection pressure was maintained in each of the corresponding medium. After 7 weeks of selection 38%-47% of the embryogenic calli regenerated with plants when selected on bialaphos or on D-serine respectively. Further selection of the regenerants was performed during the elongation and rooting of the regenerants for an additional 3 weeks. Intact in vitro transgenic shoots were selected within 10-12 weeks after co cultivation.
Freshly isolated immature embryos from Canon were inoculated with Agrobacterium. In all experiments Agrobacterium tumefacience super binary vector system based on LBA4404 (pSB1) was used. The constructs pRLM179, pRLM166, pRLM151 (FIG. 2. I, II and III) containing dsdA selectable marker gene alone or with a second gene (ahas or gusINT) were used for transformation. The explants were cultured on selection medium right away after co-cultivation with Agrobacterium or were cultivated on callus induction—recovery medium for 7, 14 and 21 days containing only 160 mg/l Timentin for inhibiting bacterial growth. Furthermore calli were sub cultured to fresh selection PAW-2 medium for proliferation. Embryogenic calli were transferred on PAW-4 selection medium for regeneration 5-6 weeks after transformation. The emerging plantlets were further grown and rooted on PAW-5 hormone free selection medium. […]

[2] = system: Transgenic T1 dao1 seedlings; assay: Negative selection of transgenic T1 dao1 seedlings; format: in vivo, Triticum aestivum
Description: T1 immature embryos were assayed with bioassay for germination of immature embryos on selection. […] Furthermore transgenic T1 seedlings were tested for negative selection using D-isoleucine and D-valine containing medium. Transgenic T1 dao1 seedlings were sensitive to the concentrations range from 10 to 30 mM D-isoleucine and 15-20 mM D-valine (FIG. 11).

[3] = system: wheat callus; assay: Killing curve: callus growth and regeneration under constant selection pressure; format: cell-based, Triticum aestivum
Description: To define the sensitivity of wheat tissues during transformation when D-Serine and D-Alanine are present as selection agents regeneration experiments with immature embryos were designed. Immature embryos were immersed in PAWinf medium and subjected to all steps of callus induction, callus maintaining and regeneration in transformation protocol above.
Sensitivity of callus tissue under constant selection pressure were evaluated using range of concentrations: 0.5 mM, 1 mM, 3 mM, 5 mM, 10 mM, 25 mM, 50 mM. Experiments were performed in triplicates. Percentage of embryos forming embryos-genic callus was scored on PAW-4 regeneration medium. At the end of shoots elongation regeneration capacity of the calluses was scored as calluses regenerating shoots and number of shoots per callus.
Range of the tested concentrations 0.5-50 mM D-ser and D-ala are evaluated in replicating regeneration experiments. The effect of selective compounds is estimated during callus growth and shoots formation following transformation procedure on medium with D-serine and D-alanine (Table 4).

[4] = system: wheat in vitro shoots; assay: Killing curve: rooting of in vitro shoots; format: in vivo, Triticum aestivum
Excerpt: […] The effect of selection agents was observed two and tree weeks later. Number of plantlets with growing roots and green leaves were scored.
In vitro regenerated shoots from media lacking the selection compounds were collected and transferred on medium for rooting (½ MS salts hormone free). Roots formation, growth of the shoots and leaves elongation was scored two and four weeks later after sub culturing of these shoots to the medium supplemented with D-amino acids (Table 5).

[5] = system: wheat immature embryos; assay: Killing curve: in vitro germination of immature embryos and seedling growth; format: in vivo, Triticum aestivum
Description: In order to establish effective concentrations of D-serine and D-alanine on inhibiting growth of tissue cultured wheat cells, a bioassay system using immature embryos was applied. Immature embryos 2 mm in length were dissected onto germination medium with the selection agents, and incubated at 27° C. in light. The number of germinated embryos with well-developed shoots and brunched shoots were scored after 14 days.
Immature embryos 2 mm in size were isolated from the sterilized caryopses. The embryos were cultured on PAW-5 hormone free medium for germination in dark. Seedlings growth on D-amino acid selection was observed after 2 weeks. Most of the embryos germinated but the seedlings growth was inhibited when roots emerge and the uptake of the selection compound was direct from the medium. The Lethal Dose (LD 100) for seedlings germination and growth was 1 mM concentration of both D-amino acids tested (Table 6). Seedlings derived from embryos isolated from the immature caryopsis without endosperms were susceptible to the selection in concentration higher than 1 mM (FIG. 8).

[6] = system: wheat variety Canon immature embryos / embryogenic callus; assay: Agrobacterium-mediated transformation with dao1 constructs and selection of transgenic plants; format: cell-based, Triticum aestivum; settings: pRLM205 (dao1 original), 5 mM selection
Description: as §1, §2
Freshly isolated immature embryos from Canon were inoculated with Agrobacterium. In all experiments Agrobacterium tumefactions super binary vector system based on LBA4404 (pSB1) was used. The constructs pRLM205 containing the original dao1 gene and pRLM226 carrying modified Daol. Both constructs contain gusINT reporter marker gene (FIGS. 3, I and II). Following co cultivation the explants were transferred on callus induction PAW-2 selection free medium containing 160 mg/l Timentin to inhibit bacterial growth for 14 days. For selection embryogenic callus was transferred to PAW-2 selection medium containing 5 mM D-serine or 5 mM D-alanine respectively. Furthermore calli were sub cultured to fresh corresponding selection PAW-2 medium for maintaining. Embryogenic calli were trans-ferred on PAW-4 selection medium for regeneration 5-6 weeks after transformation. The emerging plantlets were further grown and rooted on PAW-5 hormone free selection medium. Well-developed and rooted on selection putative transgenic regenerants were selected in vitro within. When D-alanine was used as selection compound similar effects in callus growth, shoots regeneration and rooting of transgenic plants or non transgenic escapes selected on D-serine was observed. Both selection agents resulted with 1.1% to 1.2% transformation efficiency and no escape rate (Table 9).

[7] = construct pRLM167 (dsdA/pat), selection on 5 mM D-serine or 3 mg/l bialaphos

For `C[C@H](NC(=O)[C@H](C)NC(=O)[C@@H](N)CCP(C)(=O)O)C(=O)O` [bialaphos], the “ER Escape Rate (% of non-transgenic regenerants out of all selected plants)” value [1, 7] was 59%, the “TE Transformation Efficiency (% of transgenic plants out of the explants)” value [1, 7] was 2.1% and the “embryogenic calli regenerated with plants” value ([1]; pRLM167, after 7 weeks of selection, 5 mM D-serine or 3 mg/l bialaphos) was 38%.

`CC(C)[C@@H](N)C(=O)O` [D-valine] was tested, and the “concentration range to which seedlings were sensitive (negative selection)” value [2] was 15 to 20 mM.

In the case of `C[C@@H](N)C(=O)O` [D-alanine], the “Regeneration capacity of the calli reduced” value ([3]; 5 mM) is reported as 70%, the “Regenerated Embryogenic Lines (%)” value ([3]; Bobwhite, 0.5 mM) is reported as 85% and the “Regenerated Embryogenic Lines (%)” value ([3]; Bobwhite, 3 mM) is reported as 52%. For the same compound, the “Regenerated Embryogenic Lines (%)” value ([3]; Bobwhite, 5 mM) was 14%, the “Regenerated Embryogenic Lines (%)” value ([3]; Bobwhite, 10 mM) was 4% and the “Regenerated Embryogenic Lines (%)” value ([3]; Bobwhite, 15 mM) was 0%. The “Regenerated Embryogenic Lines (%)” value ([3]; Bobwhite, 25 mM) was 0%, the “Regenerated Embryogenic Lines (%)” value ([3]; Bobwhite, 50 mM) was 0% and the “Regenerated Embryogenic Lines (%)” value ([3]; Canon, 0.5 mM) was 63%. For the same compound, the “Regenerated Embryogenic Lines (%)” value ([3]; Canon, 3 mM) was 44%, the “Regenerated Embryogenic Lines (%)” value ([3]; Canon, 5 mM) was 19% and the “Regenerated Embryogenic Lines (%)” value ([3]; Canon, 10 mM) was 3%. The “Regenerated Embryogenic Lines (%)” value ([3]; Canon, 15 mM) was 0%, the “Regenerated Embryogenic Lines (%)” value ([3]; Canon, 25 mM) was 0% and the “Regenerated Embryogenic Lines (%)” value ([3]; Canon, 50 mM) was 0%. For the same compound, the “lethal dose (LD 100) for regeneration response of callus” value ([3]; tested in both varieties) was 15 mM, the “root formation of non-transgenic shoots” value ([4]; 5 mM) was “not able to form roots” and the “Rooted Shoots (%)” value ([4]; Bobwhite, 1 mM) was 34%. The “Rooted Shoots (%)” value ([4]; Bobwhite, 3 mM) was 13%, the “Rooted Shoots (%)” value ([4]; Bobwhite, 5 mM) was 1% and the “Rooted Shoots (%)” value ([4]; Bobwhite, 10 mM) was 0%. For the same compound, the “Rooted Shoots (%)” value ([4]; Bobwhite, 15 mM) was 0%, the “Rooted Shoots (%)” value ([4]; Bobwhite, 25 mM) was 0% and the “Rooted Shoots (%)” value ([4]; Canon, 1 mM) was 36%. For the same compound, the “Rooted Shoots (%)” value ([4]; Canon, 3 mM) was 11%, the “Rooted Shoots (%)” value ([4]; Canon, 5 mM) was 1% and the “Rooted Shoots (%)” value ([4]; Canon, 10 mM) was 0%. The “Rooted Shoots (%)” value ([4]; Canon, 15 mM) was 0%, the “Rooted Shoots (%)” value ([4]; Canon, 25 mM) was 0% and the “In vitro germination, Immature Embryos (%)” value (from here on “In vitro germination … (%)”) ([5]; Bobwhite, 0.5 mM) was 56%. For the same compound, the “In vitro germination … (%)” value ([5]; Bobwhite, 1 mM) was 0%, the “In vitro germination … (%)” value ([5]; Bobwhite, 5 mM) was 0% and the “In vitro germination … (%)” value ([5]; Bobwhite, 10 mM) was 0%. For the same compound, the “In vitro germination … (%)” value ([5]; Canon, 0.5 mM) was 40%, the “In vitro germination … (%)” value ([5]; Canon, 1 mM) was 0% and the “In vitro germination … (%)” value ([5]; Canon, 5 mM) was 0%. The “In vitro germination … (%)” value ([5]; Canon, 10 mM) was 0%, the “ER (%) Escape Rate” value [6] was 0% and the “TE (%) Transformation Efficiency” value [6] was 1.27%.

Reference: patent US20090106856A1, “Selection System for Wheat” (BASF PLANT SCIENCE GMBH, priority 2005, published 2009)
